Residue numbers refer to the chain shown, from its start. Entries after “also recorded” stand apart in the source; their conditions may differ. Where a SMILES comes first, the peptide text is derived from it. The star is where a group is joined. Palmitoyl = CCCCCCCCCCCCCCCC(=O)*
Legend:
PAR1 [1] = molecular target: T1, PAR1 (Homo sapiens, UniProt P25116); assay: InsP formation (PLC-β) in Rat1 fibroblasts expressing human PAR1; type: cell-based
T1 construct: expressed in transfected cells
T1 sequence (P25116 22-425): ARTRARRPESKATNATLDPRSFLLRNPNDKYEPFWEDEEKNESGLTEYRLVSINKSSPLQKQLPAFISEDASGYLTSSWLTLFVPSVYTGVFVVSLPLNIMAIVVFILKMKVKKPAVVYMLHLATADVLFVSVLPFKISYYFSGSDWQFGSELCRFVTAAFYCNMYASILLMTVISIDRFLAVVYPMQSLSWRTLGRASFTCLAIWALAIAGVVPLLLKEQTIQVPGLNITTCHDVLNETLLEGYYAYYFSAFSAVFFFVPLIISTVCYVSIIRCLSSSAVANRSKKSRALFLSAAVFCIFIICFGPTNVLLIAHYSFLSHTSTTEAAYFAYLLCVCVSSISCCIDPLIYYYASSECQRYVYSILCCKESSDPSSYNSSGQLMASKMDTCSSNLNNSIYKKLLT

PAR2 = molecular target: T2, PAR2 (Homo sapiens, UniProt P55085); assay: InsP formation in COS7 cells expressing PAR2; type: cell-based; conditions: 0.1-10 micromolar pepducin
T2 construct: expressed in transfected cells; host or cells: COS7 (transient)
T2 sequence (P55085 26-397): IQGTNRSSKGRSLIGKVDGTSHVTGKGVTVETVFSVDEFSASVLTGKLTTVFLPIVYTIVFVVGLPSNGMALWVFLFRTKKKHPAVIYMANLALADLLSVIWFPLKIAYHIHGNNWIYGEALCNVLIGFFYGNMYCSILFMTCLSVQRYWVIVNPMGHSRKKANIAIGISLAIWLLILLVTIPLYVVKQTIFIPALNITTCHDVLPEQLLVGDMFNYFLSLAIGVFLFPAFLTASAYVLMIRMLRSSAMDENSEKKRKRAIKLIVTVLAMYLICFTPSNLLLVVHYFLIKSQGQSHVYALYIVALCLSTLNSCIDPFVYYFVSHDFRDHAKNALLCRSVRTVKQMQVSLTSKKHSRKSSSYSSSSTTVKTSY

[2] = molecular target: T3, somatostatin receptor (SSTR2) (Rattus norvegicus, UniProt P30680); assay: InsP formation in COS7 cells expressing SSTR2; type: cell-based; conditions: COS7 cells
T3 construct: expressed in transfected cells; host or cells: COS7, transient
T3 sequence (P30680 whole entry): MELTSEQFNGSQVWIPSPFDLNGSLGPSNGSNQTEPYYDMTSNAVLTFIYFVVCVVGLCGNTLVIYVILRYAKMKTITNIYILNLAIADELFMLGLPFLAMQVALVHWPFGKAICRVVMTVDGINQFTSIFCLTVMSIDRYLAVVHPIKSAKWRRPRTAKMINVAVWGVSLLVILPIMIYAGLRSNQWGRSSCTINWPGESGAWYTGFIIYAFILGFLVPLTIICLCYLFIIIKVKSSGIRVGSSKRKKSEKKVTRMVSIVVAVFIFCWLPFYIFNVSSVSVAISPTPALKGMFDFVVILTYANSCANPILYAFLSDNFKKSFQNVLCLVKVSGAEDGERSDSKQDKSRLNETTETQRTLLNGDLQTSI

cholecystokinin A (CCKA) = molecular target: T4, cholecystokinin A (CCKA) (Homo sapiens, UniProt P32238); assay: InsP formation in COS7 cells expressing CCKA; type: cell-based
T4 construct: expressed in transfected cells; host or cells: COS7, transient
T4 sequence (P32238 1-428): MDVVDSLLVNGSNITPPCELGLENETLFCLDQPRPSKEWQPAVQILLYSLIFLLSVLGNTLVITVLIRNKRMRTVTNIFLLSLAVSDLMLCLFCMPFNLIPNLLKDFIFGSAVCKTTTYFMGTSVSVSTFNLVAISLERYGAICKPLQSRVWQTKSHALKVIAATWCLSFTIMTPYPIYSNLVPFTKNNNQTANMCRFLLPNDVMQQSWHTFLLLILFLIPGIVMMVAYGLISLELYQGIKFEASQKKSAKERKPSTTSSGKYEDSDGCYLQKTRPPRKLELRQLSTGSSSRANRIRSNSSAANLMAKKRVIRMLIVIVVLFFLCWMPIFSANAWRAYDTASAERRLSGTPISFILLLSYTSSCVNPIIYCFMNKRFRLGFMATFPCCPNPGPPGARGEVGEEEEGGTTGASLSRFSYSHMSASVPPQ

cholecystokinin B (CCKB) = molecular target: T5, cholecystokinin B (CCKB) (Homo sapiens, UniProt P32239); assay: InsP formation in COS7 cells expressing CCKB; type: cell-based
T5 construct: expressed in transfected cells; host or cells: COS7, transient
T5 sequence (P32239 1-447): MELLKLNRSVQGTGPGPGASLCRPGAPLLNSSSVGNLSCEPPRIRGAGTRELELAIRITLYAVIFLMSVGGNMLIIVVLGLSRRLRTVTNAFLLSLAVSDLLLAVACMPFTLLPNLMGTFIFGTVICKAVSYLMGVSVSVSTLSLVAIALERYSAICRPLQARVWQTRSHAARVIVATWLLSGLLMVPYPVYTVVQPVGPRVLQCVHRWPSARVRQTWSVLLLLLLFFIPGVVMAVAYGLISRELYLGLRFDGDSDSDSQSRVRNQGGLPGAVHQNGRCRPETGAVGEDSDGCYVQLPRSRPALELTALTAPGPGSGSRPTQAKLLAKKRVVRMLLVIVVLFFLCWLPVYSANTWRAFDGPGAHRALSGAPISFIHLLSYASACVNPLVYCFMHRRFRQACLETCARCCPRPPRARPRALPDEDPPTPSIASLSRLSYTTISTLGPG

substance P (Sub-P) = molecular target: T6, substance P (Sub-P) (Homo sapiens, UniProt P25103); assay: InsP formation in COS7 cells expressing substance P receptor; type: cell-based
T6 construct: expressed in transfected cells; host or cells: COS7, transient
T6 sequence (P25103 whole entry): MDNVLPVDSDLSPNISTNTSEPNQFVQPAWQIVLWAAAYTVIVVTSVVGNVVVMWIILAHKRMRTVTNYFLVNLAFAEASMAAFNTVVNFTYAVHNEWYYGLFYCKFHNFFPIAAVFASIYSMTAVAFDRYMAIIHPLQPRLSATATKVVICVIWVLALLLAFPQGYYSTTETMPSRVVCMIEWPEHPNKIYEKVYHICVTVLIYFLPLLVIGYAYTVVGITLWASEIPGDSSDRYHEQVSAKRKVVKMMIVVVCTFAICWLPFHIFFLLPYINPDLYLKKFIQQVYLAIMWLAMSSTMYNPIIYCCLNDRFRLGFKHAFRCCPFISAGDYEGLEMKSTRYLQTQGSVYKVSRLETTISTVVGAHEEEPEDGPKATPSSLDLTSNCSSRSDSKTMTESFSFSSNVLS

S309P PAR1 = molecular target: T7, S309P PAR1 (Homo sapiens, UniProt P25116, S309P); assay: InsP formation in COS7 cells expressing S309P PAR1 mutant; type: cell-based; conditions: relative to wild type PAR1
T7 construct: expressed in transfected cells; host or cells: COS7, transient
T7 sequence (P25116 22-425 S309P): T1 sequence (P25116 22-425) with S288P

delta377 PAR1 = assay: InsP formation in COS7 cells expressing delta377 (C-tail deleted) PAR1 mutant; type: cell-based, human
[3] = system: untransfected Rat1 cells / COS7 cells without PAR1; assay: InsP formation in COS7 cells or Rat1 fibroblasts in the absence of the PAR1 receptor; type: cell-based; conditions: for InsP stimulation in the absence of the PAR1 receptor: COS7 cells or Rat1 fibroblasts
PAR1 [4] = molecular target: T1, PAR1; assay: Inhibition of PAR1-dependent platelet Ca2+ signal; type: cell-based; conditions: SFLLRN (or thrombin) after peptide pre-treatment
Protocol: Platelet Ca2+ measurements were performed as in Example 1.
The integrated Ca^2+ response for the individual treatments are relative to the full Ca^2+ responses for each agonist (100%) recorded in the absence of P4pal-10 (top trace).

platelets = assay: Platelet intracellular Ca2+, agonist activity of peptides
PAR4 = molecular target: T8, PAR4 (Homo sapiens, UniProt Q96RI0); assay: InsP formation in COS7 cells expressing PAR4; type: cell-based; set-up: expressed in transfected cells; host or cells: COS7, transient; conditions: COS7 cells
T8 sequence (Q96RI0 18-385): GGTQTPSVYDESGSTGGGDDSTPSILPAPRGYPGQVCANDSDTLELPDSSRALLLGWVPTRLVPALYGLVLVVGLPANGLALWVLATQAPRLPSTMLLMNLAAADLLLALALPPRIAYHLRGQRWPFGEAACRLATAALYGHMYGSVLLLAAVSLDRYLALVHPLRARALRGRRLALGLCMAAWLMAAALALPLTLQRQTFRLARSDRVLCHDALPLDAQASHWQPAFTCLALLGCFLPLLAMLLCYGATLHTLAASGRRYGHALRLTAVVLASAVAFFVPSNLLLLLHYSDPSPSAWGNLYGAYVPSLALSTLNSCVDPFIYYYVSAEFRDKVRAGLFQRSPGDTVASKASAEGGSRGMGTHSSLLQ

MC4R = molecular target: T9, MC4R (Homo sapiens, UniProt P32245); assay: Adenylate cyclase activity in COS7 fibroblasts transfected with MC4R; type: cell-based
T9 construct: expressed in transfected cells; host or cells: COS7, transient
T9 sequence (P32245 whole entry): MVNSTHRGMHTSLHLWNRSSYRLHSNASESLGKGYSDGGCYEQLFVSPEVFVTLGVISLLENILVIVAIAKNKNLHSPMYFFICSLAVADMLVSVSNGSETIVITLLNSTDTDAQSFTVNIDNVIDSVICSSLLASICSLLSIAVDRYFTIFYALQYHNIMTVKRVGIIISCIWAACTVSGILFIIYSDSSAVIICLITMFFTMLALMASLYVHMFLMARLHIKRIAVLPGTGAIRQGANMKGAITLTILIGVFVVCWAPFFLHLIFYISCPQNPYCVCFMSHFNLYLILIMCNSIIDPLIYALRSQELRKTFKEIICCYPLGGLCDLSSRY

IC50 (MC4R; read-out: IC50, inhibitory phase) [µM] | stimulation of adenylate cyclase activity (efficacy) (MC4R; relative to alpha-MSH) [%] | Structure (SMILES) | Agonist Efficacy (PAR1 [1]) | activation of PAR2 (InsP) (PAR2) | activation of SSTR2 (InsP) [2] | activation of CCKA (InsP) (cholecystokinin A (CCKA)) | stimulation of CCKB, % of its maximal activity (cholecystokinin B (CCKB); maximum defined by 300 nM CCK-8) | activation of Sub-P receptor (InsP) (substance P (Sub-P)) | loss of efficacy on S309P mutant (S309P PAR1) [fold] | loss of potency on S309P mutant (S309P PAR1) [fold] | stimulation of PLC-beta with delta377 PAR1 mutant (delta377 PAR1) | InsP stimulation in the absence of the PAR1 receptor [3] | stimulation of untransfected Rat1 cells (Rat1 alone) ([3]; attributed to endogenous rat PAR1) | inhibition of PAR1-dependent Ca2+ response (PAR1 [4]) | agonist activity in platelet aggregation (human platelets) | EC50 (human platelets; read-out: EC50 of activation of platelet aggregation) [µM] | agonist activity, platelet intracellular Ca2+ (platelets) | activation of PAR4 (InsP) (PAR4) | activation of CCKB (InsP) (cholecystokinin B (CCKB); COS7 cells)
– | – | CCCCCCCCCCCCCCCC(=O)N[C@@H](CCCNC(=N)N)C(=O)N[C@@H](CS)C(=O)N[C@@H](CC(C)C)C(=O)N[C@@H](CO)C(=O)N[C@@H](CO)C(=O)N[C@@H](CO)C(=O)N[C@@H](C)C(=O)N[C@H](C(=O)N[C@@H](C)C(=O)N[C@@H](CC(N)=O)C(=O)N[C@@H](CCCNC(=N)N)C(=O)N[C@@H](CO)C(=O)N[C@@H](CCCCN)C(=O)N[C@@H](CCCCN)C(=O)N[C@@H](CO)C(=O)N[C@@H](CCCNC(=N)N)C(=O)N[C@@H](C)C(=O)N[C@@H](CC(C)C)C(=O)N[C@@H](Cc1ccccc1)C(N)=O)C(C)C [Pepducin P1pal-19] (Palmitoyl-RCLSSSAVANRSKKSRALF-NH2) | 90 ± 2% | robustly activate PAR2; also recorded: can fully activate | does not activate | does not activate | about 30% | does not activate | 4.3 | 13 | effectively no stimulation of PLC-beta | approximately 11% | minor stimulation | completely inhibits the subsequent Ca^2+i response | fully activates platelet aggregation | 8 ± 3 | causes a rapid Ca^2+i transient | does not activate | –
– | – | CCCCCCCCCCCCCCCC(=O)N[C@@H](C)C(=O)N[C@H](C(=O)N[C@@H](C)C(=O)N[C@@H](CC(N)=O)C(=O)N[C@@H](CCCNC(=N)N)C(=O)N[C@@H](CO)C(=O)N[C@@H](CCCCN)C(=O)N[C@@H](CCCCN)C(=O)N[C@@H](CO)C(=O)N[C@@H](CCCNC(=N)N)C(=O)N[C@@H](C)C(=O)N[C@@H](CC(C)C)C(=O)N[C@@H](Cc1ccccc1)C(N)=O)C(C)C [Pepducin P1pal-13] (Palmitoyl-AVANRSKKSRALF-NH2) | 60 − 88% | did not activate | did not activate | did not activate | – | did not activate | – | – | – | approximately 11% | – | – | – | – | – | did not activate | did not activate
~10 | 40 | CCCCCCCCCCCCCCCC(=O)N[C@H](C(=O)NCC(=O)N[C@@H](C)C(=O)N[C@H](C(=O)N[C@@H](CCCNC(=N)N)C(=O)N[C@@H](CCC(N)=O)C(=O)NCC(=O)N[C@@H](C)C(=O)N[C@@H](CC(N)=O)C(=O)N[C@@H](CCSC)C(=O)N[C@@H](CCCCN)C(=O)NCC(=O)N[C@@H](C)C(=O)N[C@H](C(N)=O)[C@@H](C)CC)[C@@H](C)CC)[C@@H](C)O [MC4pal-14] (Palmitoyl-TGAIRQGANMKGAI-NH2) | – | – | – | – | – | – | – | – | – | – | – | – | – | – | – | – | –

Source: patent publication US8324172B2, “G protein coupled receptor agonists and antagonists and methods of activating and inhibiting G protein coupled receptors using the same” (Tufts Medical Center, Inc., priority 2000, dated 2012)
